Experimental data taken from US20260217656A1, “Compounds Affecting KRAS” (UNIVERSITAT DE BARCELONA, priority 2022, published 2026).

Experiments:
[1] = molecular target: T1, HA-KRAS-G12V interaction with BRAF, C-RAF/P-C-RAF, ARAF (Homo sapiens, UniProt P01116, G12V); assay: Co-immunoprecipitation of HA-KRASG12V with RAF family members; format: cell-based; conditions: 10 min treatment, 100 μM
T1 construct: expressed in transfected cells; host or cells: DLD-1 KO (KRAS WT/-) clone DWT7 cells stably expressing HA-KRAS G12V
Description: DLD-1 KO cells stably expressing HA-KRAS G12V were serum starved for the next 24 hours before treatment with the compounds for the times indicated. Next, an IP with anti-HA antibody crosslinked to agarose beads (clone HA-7, Sigma-Aldrich A20956) was performed as previously described (Cabot et al, Oncogene 2021).
We assessed the possibility that P14B favors RAS-effector binding and consequently increases downstream RAS signaling. To this end, co-immunoprecipitation experiments were carried out to analyze the interaction of KRAS with different RAF family members upon P14B treatment. The interaction was analyzed after 10 min of P14B treatment since P—C-RAF and P-MEK were observed after 15 min (FIG. 3C). DLD-1 cells stably expressing HA-KRAS-G12V were serum-starved and then treated for 10 min with either EGF or P14B.

[2] = molecular target: T2, GST-KRAS-G12V binding to CaM (Homo sapiens, UniProt P01116, G12V); assay: CaM-sepharose pulldown competition assay; conditions: increasing concentrations of P14B
T2 construct: recombinant GTP-loaded GST-KRAS-G12V (1-166) with CaM-sepharose beads; made in house; host or cells: Escherichia coli BCI21 (so in the source)
Description: […] of recombinant GST-KRAS (1-166) (GTP loaded) and 12.5 I of CaM-sepharose beads (Cytiva; Merck) (previously washed with pull-down buffer (PDB) containing 50 mM Tris-HCl, pH 7.5, 150 mM NaCl, 0.1% (v/v) Triton X-100) were incubated in the presence of 1 mM CaCl2 or 5 mM EGTA (in a total volume of 100 I with PDB) for 60 minutes at room temperature. The unbound fraction was collected by centrifugation, and the bound fraction was washed four times with PDB with either CaCl2 or EGTA. The entire bound fraction was analysed by WB.
GST-KRAS (1-166) fusion protein was expressed in Escherichia coli BCI21 and then purified and loaded with the specific nucleotide as previously described (Villalonga et al., 2001).
To confirm the direct interaction between KRAS and P14B, surface plasmon resonance analysis was performed. Purified GST-KRAS (aminoacids 1 to 166) was immobilized and then GTP loaded. […] Given that P14B is able to bind to oncogenic KRAS (FIG. 4) most likely via the same surface that KRAS uses to interact with CaM, we analyzed the possibility that P14B can displace CaM from oncogenic KRAS. To this end, we performed an in vitro competence assay that consisted of pulling-down recombinant GTP-loaded GST-KRAS-G12V (1-166) with CaM-sepharose beads followed by incubation with increasing concentrations of P14B.

[3] = molecular target: T3, GST-KRAS (1-166), GTP loaded (Homo sapiens, UniProt P01116, G12V); assay: Surface plasmon resonance analysis; format: binding; conditions: GTP-loaded GST-KRAS (aminoacids 1 to 166) immobilized; read-out: affinity constant (KD)
T3 construct: GST-KRAS (1-166) and GST were covalently immobilized; made in house; host or cells: Escherichia coli BCI21 (so in the source)
Description: Surface Plasmon Resonance Analysis was performed by using BIAcore T200 equipment. GST-KRAS (1-166) and GST were covalently immobilized on two of the channels of CM5 Series S Chip following manufacturers instruction. KRAS was loaded with GTP by injecting 1 mM of GTP 10 μl/min for 30 min in exchange buffer (20 mM Tris-HCl pH 7.5; 50 mM NaCl, 5% glycerol, 0.1% Triton X-100, 1 mM DTT) with 10 mM EDTA at 30° C. and loading was blocked by injecting exchange buffer with 15 mM MgCl2 at 10 μl/min for 5 min. P14B was injected at 12.5 μM, 25 μM, 38.5 μM, 50 μM, 75 μM, 100 μM and 150 μM in running buffer (150 mM NaCl, 50 mM Tris-HCl pH7.5, 2 mM MgCl2, 0.1% Triton and 5% DMSO […] Dissociation was allowed for 10 min in the same buffer. All runs were done by duplicate. Nonspecific binding was subtracted by using two linked channels (GST-KRAS minus GST). Diverse solutions (from 3% to 8%) with DMSO were also prepared to analyse its effect in the RUs, and a solvent correction was performed to reduce the error associated with the injection of the sample. […]
To confirm the direct interaction between KRAS and P14B, surface plasmon resonance analysis was performed. […] Given that P14B is able to bind to oncogenic KRAS (FIG. 4) most likely via the same surface that KRAS uses to interact with CaM, we analyzed the possibility that P14B can displace CaM from oncogenic KRAS. […]

DLD-1 cells = assay: Cleaved caspase-3 Western blot, DLD-1; format: cell-based, human; conditions: DLD-1 cells treated 34 h or 48 h
Description: FIG. 6C is a blot showing extracts of DLD-1, DLD-1-KO and RPE cells at 34 h. and 48 h. DLD-1 cells treated with P14B for 36 h and 48 h were lysed and the expression of the apoptosis marker cleaved caspase-3 was analyzed by Western blot. Cells treated with the apoptosis inducer palmitic acid (PA) were used as a positive control.
Proteins were resolved by SDS-PAGE, transferred onto PVDF membranes (Immobilon-P, Millipore) and Western blot was performed as previously described (Cabot et al, Oncogene 2021). […]
Since both inhibition and sustained activation of RAS signaling are related to a decrease in cell survival, we analyzed the viability of the CRC cell lines DLD-1 (expressing oncogenic KRAS) and DLD-1-KO (oncogenic KRAS allele deleted), and the non-transformed cell line hTERT-RPE. […] The effect of P14B in DLD-1 cells cultured in 3D conditions was also determined. […]

- KRAS-ARAF binding [1]: No differences
- KRAS-BRAF interaction ([1]; with respect to non-treated cells): increase in the KRAS-BRAF interaction
- Ca+2-dependent GST-KRAS-G12V binding to CaM [2]: reduced
- Kd [3]: 32.8 µM
SMILES: COc1ccc(C(c2c(C)n[nH]c2O)c2c(C)n[nH]c2O)cc1Oc1ccc([N+](=O)[O-])cc1 [Example P14B]
- P-C-RAF co-immunoprecipitated with KRAS ([1]; serum-starved cells): increased the levels of P—C-RAF co-immunoprecipitated with KRAS
- cleaved caspase-3 expression (DLD-1 cells): only detected in DLD-1-treated cells
